Test results published in patent publication US9314497B2, “E2F as a target of hormone refractory prostate cancer” (RUTGERS, THE STATE UNIVERSITY OF NEW JERSEY, priority 2009, dated 2016).
Like-named read-outs stand apart in the source and are kept apart here. Where no end group is shown, it is not given here.

Assays:
tumor cell lines [1] = system: tumor cell lines
[2] = system: normal human CD34 positive cells containing hematopoeitic progenitors (HSC); conditions: 24 h exposure
[3] = Tolerability in tumor-bearing nude mice; type: in vivo; conditions: 60 mg/kg dose; all animals recovered quickly
Method: (§1) Nude mice bearing the H-69 small cell carcinoma xenografts were treated with PEP-2 encapsulated in PEGylated liposomes as previously described. Female mice (20-22 g) were inoculated […] with 10 million tumor cells suspended in 50 uL of PBS and an equal volume of matrigel. When the tumors were approximately 50 mm 3, the animals were randomized into groups of 6 and either treated with 0.06 ml of empty PEGylated liposomes, or 0.03 ml of PEGylated liposomes (30 mg/kg of PEP-2) or 0.06 ml of PEGylated liposomes (60 mg/kg of PEP-2), every 4 days. Tumor size (FIG. 10) and animal weight (FIG. 11) was measured every three days. […] Treatment of mice bearing advanced Tumors (FIG. 12) and mice with advanced tumors tolerate the encapsulated PEP-2 liposome treatment (FIG. 13).

[4] = system: H-69 small cell carcinoma xenografts; experiment: H-69 xenograft tumor size in nude mice; type: in vivo; conditions: 30 or 60 mg/kg of PEP-2 in PEGylated liposomes, every 4 days
Method: as §1

tumor cell lines [5] = experiment: Cell viability after 24 h treatment (Vi-CELL automated cell counter); conditions: RPMI media and 10% fetal calf serum

In the case of `CC[C@H](C)[C@H](NC(=O)[C@H](CCCCN)NC(=O)[C@@H](NC(=O)[C@H](CCC(N)=O)NC(=O)[C@@H](N)CCCNC(=N)N)[C@@H](C)CC)C(=O)N[C@@H](Cc1c[nH]c2ccccc12)C(=O)N[C@@H](Cc1ccccc1)C(=O)N[C@@H](CCC(N)=O)C(=O)N[C@@H](CC(N)=O)C(=O)N[C@@H](CCCNC(=N)N)C(=O)N[C@@H](CCCNC(=N)N)C(=O)N[C@@H](CCSC)C(=O)N[C@@H](CCCCN)C(=O)N[C@@H](Cc1c[nH]c2ccccc12)C(=O)N[C@@H](CCCCN)C(=O)N[C@@H](CCCCN)C(=O)N[C@@H](Cc1c[nH]cn1)C(=O)N[C@@H](Cc1c[nH]cn1)C(=O)N[C@@H](Cc1c[nH]cn1)C(=O)N[C@@H](CCCNC(=N)N)C(=O)N[C@@H](CC(C)C)C(=O)N[C@@H](CO)C(=O)N[C@@H](Cc1c[nH]cn1)C(=O)O` [SEQ ID NO: 3], the “growth inhibition / cytotoxicity in tumor cell lines” value (“growth inhibition / cytotoxicity” below) (tumor cell lines [1]) is reported as “cytotoxic to most, but not all, tumor cell lines” and the IC50 [2] is reported as greater than 80 µM.

In the case of “RQIKIWFQNRRIKWKKHHHRLSH (penetratin) [SEQ ID NO: 34]”, the acute adverse effect [3] is reported as “acute transient distress” and the tumor size [4] is reported as “Decreases the Size of Tumors”.

For HHHRLSH [SEQ ID NO: 1, HHHRLSH], the “growth inhibition / cytotoxicity” value (tumor cell lines [5]) was “did not inhibit growth”.

With `CC[C@H](C)[C@H](NC(=O)[C@H](CCCCN)NC(=O)[C@@H](NC(=O)[C@H](CCC(N)=O)NC(=O)[C@@H](N)CCCNC(=N)N)[C@@H](C)CC)C(=O)N[C@@H](Cc1c[nH]c2ccccc12)C(=O)N[C@@H](Cc1ccccc1)C(=O)N[C@@H](CCC(N)=O)C(=O)N[C@@H](CC(N)=O)C(=O)N[C@@H](CCCNC(=N)N)C(=O)N[C@@H](CCCNC(=N)N)C(=O)N[C@@H](CCSC)C(=O)N[C@@H](CCCCN)C(=O)N[C@@H](Cc1c[nH]c2ccccc12)C(=O)N[C@@H](CCCCN)C(=O)N[C@@H](CCCCN)C(=O)N[C@@H](C)C(=O)N[C@@H](C)C(=O)N[C@@H](C)C(=O)N[C@H](C(=O)N[C@@H](CC(C)C)C(=O)N[C@@H](CO)C(=O)N[C@@H](C)C(=O)O)C(C)C` [SEQ ID NO: 19, reference compound] the “growth inhibition / cytotoxicity” value (tumor cell lines [1]) was “little or no effect on cell growth”.
